ChEMBL document CHEMBL2346531, “Investigation of σ receptors agonist/antagonist activity through N-(6-methoxytetralin-1-yl)- and N-(6-methoxynaphthalen-1-yl)alkyl derivatives of polymethylpiperidines” (Bioorg Med Chem, 2013)
The source made the active and inactive calls. No cut-off for these calls is given here.

Assays:
MCF7 [1] = assay: Antiproliferative activity against human MCF7 cells after 48 hrs by MTT assay; assay type: functional, cell-based; conditions: for EC50: Homo sapiens, MCF7, 48 h
MCF7 [2] = assay: Antiproliferative activity against human MCF7 cells transfected with human sigma1 receptor after 48 hrs by MTT assay; assay type: functional, cell-based; parameters: Activity: concentration or dose not given beside the values; conditions: for EC50: Homo sapiens, MCF7, 48 h
[3] = Displacement of [3H]DTG from sigma 2 receptor in Wistar Hannover rat liver membrane by competition binding assay; assay type: cell membranes
[4] = Selectivity ratio of Ki for sigma 2 receptor in Wistar Hannover rat liver membrane to Ki for sigma 1 receptor in Dunkin guinea pig brain membrane without cerebellum; assay type: cell membranes
[5] = target: Sigma non-opioid intracellular receptor 1 (Cavia porcellus, UniProt Q60492); assay: Displacement of [3H]pentazocine from sigma 1 receptor in Dunkin guinea pig brain membrane without cerebellum by competition binding assay; assay type: cell membranes
MCF7 [6] = assay: Agonist activity at sigma 2 receptor in human MCF7 cells assessed as decrease in bradykinin-induced Ca2+ response at 1 uM pretreated for 10 mins measured every 5 secs by fluorescence analysis in presence of 10 uM sigma 2 receptor antagonist, AC927; assay type: cell-based
[7] = target: Sigma non-opioid intracellular receptor 1 (Homo sapiens) (UniProt Q99720); assay: Activity at human sigma 1 receptor transfected in human MCF7 cells assessed as Ca2+ mobilization by fluorescence analysis; assay type: cell-based
MCF7 [8] = assay: Agonist activity at sigma 2 receptor in human MCF7 cells assessed as decrease in bradykinin-induced Ca2+ response at 1 uM pretreated for 10 mins measured every 5 secs by fluorescence analysis; assay type: cell-based
MCF7 [9] = assay: Activity at sigma 2 receptor in human MCF7 cells assessed as Ca2+ mobilization by fluorescence analysis; assay type: cell-based
[10] = target: Sigma non-opioid intracellular receptor 1 (Homo sapiens) (UniProt Q99720); assay: Agonist activity at human sigma 1 receptor transfected in human MCF7 cells assessed as increase in bradykinin-triggered Ca2+ response at 1 uM pretreated for 10 mins measured every 5 secs by fluorescence analysis; assay type: cell-based
MCF7 [11] = assay: Activity at sigma 2 receptor in human MCF7 cells assessed as bardykinin-triggered Ca2+ mobilization at 1 uM pretreated for 10 mins measured every 5 secs by fluorescence analysis; assay type: cell-based
[12] = target: Sigma non-opioid intracellular receptor 1 (Homo sapiens) (UniProt Q99720); assay: Antagonist activity at human sigma 1 receptor transfected in human MCF7 cells assessed as decrease in bradykinin-triggered Ca2+ response at 1 uM pretreated for 10 mins measured every 5 secs by fluorescence analysis; assay type: cell-based
MCF7 [13] = assay: Antagonist activity at sigma 2 receptor in human MCF7 cells assessed as effect on bradykinin-triggered Ca2+ response at 1 uM pretreated for 10 mins measured every 5 secs by fluorescence analysis; assay type: cell-based
[14] = target: Sigma non-opioid intracellular receptor 1 (Homo sapiens) (UniProt Q99720); assay: Antagonist activity at human sigma 1 receptor transfected in human MCF7 cells assessed as decrease in bradykinin-triggered Ca2+ response at 1 uM pretreated for 10 mins measured every 5 secs by fluorescence analysis in presence of 1 uM sigma 1 receptor agonist, (+)-pentazocine; assay type: cell-based
[15] = target: Sigma non-opioid intracellular receptor 1 (Homo sapiens) (UniProt Q99720); assay: Agonist activity at human sigma 1 receptor transfected in human MCF7 cells assessed as increase in bradykinin-triggered Ca2+ response at 1 uM pretreated for 10 mins measured every 5 secs by fluorescence analysis in presence of 1 uM sigma 1 receptor antagonist, BD1063; assay type: cell-based
MCF7 [16] = assay: Antagonist activity at sigma 2 receptor in human MCF7 cells assessed as effect on bradykinin-triggered Ca2+ response at 10 uM pretreated for 10 mins measured every 5 secs by fluorescence analysis; assay type: cell-based

Sigma non-opioid intracellular receptor 1, sequence (Q60492 whole entry): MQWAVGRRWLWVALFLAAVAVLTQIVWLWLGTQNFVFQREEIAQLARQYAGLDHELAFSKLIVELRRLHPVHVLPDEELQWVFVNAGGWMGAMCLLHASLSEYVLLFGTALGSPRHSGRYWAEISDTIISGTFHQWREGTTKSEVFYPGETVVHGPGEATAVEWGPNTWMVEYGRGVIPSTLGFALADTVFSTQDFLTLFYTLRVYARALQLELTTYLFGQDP
Sigma non-opioid intracellular receptor 1 (Homo sapiens), sequence (Q99720 whole entry): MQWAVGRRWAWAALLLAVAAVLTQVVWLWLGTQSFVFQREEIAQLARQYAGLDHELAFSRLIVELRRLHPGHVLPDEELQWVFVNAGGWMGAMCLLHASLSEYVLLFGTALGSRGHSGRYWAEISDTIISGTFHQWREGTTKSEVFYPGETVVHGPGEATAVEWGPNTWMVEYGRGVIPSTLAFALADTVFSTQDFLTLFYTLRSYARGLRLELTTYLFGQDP

| Compound | EC50 (MCF7 [1]) [µM] | EC50 (MCF7 [2]) [µM] | Ki [3] [µM] | Ratio Ki [4] | Ki [5] [µM] | also measured |
| --- | --- | --- | --- | --- | --- | --- |
| COc1cccc2c1CCCC2CCCN1CCN(C2CCCCC2)CC1 (stereo not drawn) | 27.4 | 31.2 |  |  |  |  |
| COc1ccc2c(CCCCN3CCCCC3(C)C)cccc2c1 | 100 | 100 | 0.0286 | 1.3 |  | Activity (MCF7 [1]): 19%; Activity (MCF7 [2]): 18% |
| COc1ccc2c(CCCCN3C(C)(C)CCCC3(C)C)cccc2c1 | > 100 | > 100 | 0.0907 | 1 | 0.0886 |  |
| CN1CCN(CCc2ccc(Cl)c(Cl)c2)CC1 | > 100 | 70 |  |  |  |  |
| COc1ccc2c(c1)CCCC2CCCN1C(C)(C)CCCC1(C)C (stereo not drawn) | > 100 | > 100 | 0.641 | 1.7 | 0.373 |  |
| COc1ccc2c(c1)CCCC2CCCCN1C(C)(C)CCCC1(C)C (stereo not drawn) | > 100 | > 100 | 0.0698 | 1.9 | 0.0359 |  |
| COc1ccc2c(CCCN3CCCCC3(C)C)cccc2c1 | > 100 | > 100 | 0.094 | 0.09 |  |  |
| COc1ccc2c(CCCN3C(C)(C)CCCC3(C)C)cccc2c1 | > 100 | > 100 | 0.495 | 2.1 | 0.236 |  |
| COc1ccc2c(CCCCN3[C@H](C)CCC[C@@H]3C)cccc2c1.Cl | 100 | 100 | 0.0138 | 0.7 | 0.0185 | Activity (MCF7 [1]): 14%; inhibition (MCF7 [6]): inactive; Activity [7]: inactive; inhibition (MCF7 [8]): Active; Activity (MCF7 [9]): inactive; Activity [10]: Active; Activity (MCF7 [2]): 12% |
| COc1ccc2c(c1)CCCC2CCCCN1CCCCC1(C)C (stereo not drawn) | 100 | 100 | 0.0295 | 9 |  | Activity (MCF7 [1]): 20%; Activity (MCF7 [2]): 14% |
| Cc1ccccc1NC(=N)Nc1ccccc1C [DITOLYLGUANIDINE] |  |  | 0.0302 |  |  |  |
| CC(C)=CCN1CC[C@]2(C)c3cc(O)ccc3C[C@H]1[C@H]2C [(+)-PENTAZOCINE] | > 100 | > 100 |  |  |  | Activity (MCF7 [11]): inactive |
| COc1ccc2c(c1)CCCC2CCCN1CCCCC1(C)C (stereo not drawn) | > 100 | > 100 | 0.115 | 0.6 |  |  |
| COc1ccc2c(c1)CCCC2CCCCN1[C@H](C)CCC[C@@H]1C (stereo partly drawn) | > 100 | 100 | 0.0111 | 1.3 | 0.00867 | Activity [7]: inactive; Activity (MCF7 [9]): inactive; inhibition [12]: Active; Activity (MCF7 [2]): 14%; Activity (MCF7 [13]): Active; inhibition [14]: inactive |
| COc1ccc2c(CCCN3[C@H](C)CCC[C@@H]3C)cccc2c1 | > 100 | > 100 | 0.0454 | 6.1 | 0.00743 | Activity [15]: inactive; Activity [7]: inactive; Activity (MCF7 [9]): inactive; Activity [10]: Active; Activity (MCF7 [13]): Active |
| COc1ccc2c(c1)CCCC2CCCN1[C@H](C)CCC[C@@H]1C (stereo partly drawn) | > 100 | > 100 | 0.0909 | 0.8 | 0.11 | Activity [7]: inactive; Activity (MCF7 [9]): inactive; Activity [10]: Active; Activity (MCF7 [13]): Active |
| c1ccc(CCN2CCCCC2)cc1 | > 100 | > 100 |  |  |  | Activity (MCF7 [16]): Active |
